Measured values reported in PubChem BioAssay AID1963851 (Molecular Pharmacology Branch, DTP, NCI, 2024).

Test system: 188146-221-R-J1-PDC complex spheroid viability
Assay: Anticancer human tumor 188146-221-R-J1-PDC patient-derived colon adenocarcinoma cell line growth inhibition [POLQ]
Conditions: for IC50: curve of first compound; for viability, T/C: stronger effect = lower value; active means viability on the fitted dose curve at most 10% of control; inactive means the rest
Summary of the method: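 Three-cell-type spheroids modelling solid tumor plus stroma served as the readout system; POL inhibitors were tested individually and in combination, concentration ranges set by clinical Cmax where known.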

[1] = second compound 0.0316 µM, first compound 0.0316 µM
[2] = second compound 0.0316 µM, first compound 0.1 µM
[3] = second compound 0.0316 µM, first compound 0.316 µM
[4] = second compound 0.0316 µM, first compound 1 µM
[5] = second compound 0.0316 µM, first compound 3.16 µM
[6] = second compound 0.0316 µM, first compound 10 µM
[7] = second compound 0.1 µM, first compound 0.0316 µM
[8] = second compound 0.1 µM, first compound 0.1 µM
[9] = second compound 0.1 µM, first compound 0.316 µM
[10] = second compound 0.1 µM, first compound 1 µM
[11] = second compound 0.1 µM, first compound 3.16 µM
[12] = second compound 0.1 µM, first compound 10 µM
[13] = second compound 0.316 µM, first compound 0.0316 µM
[14] = second compound 0.316 µM, first compound 0.1 µM
[15] = second compound 0.316 µM, first compound 0.316 µM
[16] = second compound 0.316 µM, first compound 1 µM
[17] = second compound 0.316 µM, first compound 3.16 µM
[18] = second compound 0.316 µM, first compound 10 µM
[19] = second compound 1 µM, first compound 0.0316 µM
[20] = second compound 1 µM, first compound 0.1 µM
[21] = second compound 1 µM, first compound 0.316 µM
[22] = second compound 1 µM, first compound 1 µM
[23] = second compound 1 µM, first compound 3.16 µM
[24] = second compound 1 µM, first compound 10 µM
[25] = second compound 3.16 µM, first compound 0.0316 µM
[26] = second compound 3.16 µM, first compound 0.1 µM
[27] = second compound 3.16 µM, first compound 0.316 µM
[28] = second compound 3.16 µM, first compound 1 µM
[29] = second compound 3.16 µM, first compound 3.16 µM
[30] = second compound 3.16 µM, first compound 10 µM
[31] = second compound 10 µM, first compound 0.0316 µM
[32] = second compound 10 µM, first compound 0.1 µM
[33] = second compound 10 µM, first compound 0.316 µM
[34] = second compound 10 µM, first compound 1 µM
[35] = second compound 10 µM, first compound 3.16 µM
[36] = second compound 10 µM, first compound 10 µM
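Further: spheroids exposed to compounds for seven days.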
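Wherever viability, T/C is given: 100% = DMSO vehicle control viability.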

C#Cc1c(F)ccc2cc(O)cc(-c3ncc4c(N5CC6CCC(C5)N6)nc(OCC56CCCN5CC(F)C6)nc4c3F)c12 (stereo unspecified) + COC1C(OC(N)=O)C(O)C(Oc2ccc3c(O)c(NC(=O)c4ccc(O)c(CC=C(C)C)c4)c(=O)oc3c2C)OC1(C)C
inactive: viability, T/C [1] 105% | viability, T/C [2] 93.5% | viability, T/C [3] 100% | viability, T/C [4] 100% | viability, T/C [5] 103% | viability, T/C [6] 83.1% | viability, T/C [7] 122% | viability, T/C [8] 94% | viability, T/C [9] 92.5% | viability, T/C [10] 95.9% | viability, T/C [11] 85.2% | viability, T/C [12] 93.5% | viability, T/C [13] 113% | viability, T/C [14] 95.9% | viability, T/C [15] 102% | viability, T/C [16] 92.8% | viability, T/C [17] 92.5% | viability, T/C [18] 103% | viability, T/C [19] 112% | viability, T/C [20] 96.1% | viability, T/C [21] 100% | viability, T/C [22] 90.5% | viability, T/C [23] 93.8% | viability, T/C [24] 88.8% | viability, T/C [25] 106% | viability, T/C [26] 103% | viability, T/C [27] 110% | viability, T/C [28] 87.2% | viability, T/C [29] 104% | viability, T/C [30] 82.6% | viability, T/C [31] 100% | viability, T/C [32] 98.6% | viability, T/C [33] 108% | viability, T/C [34] 97.2% | viability, T/C [35] 95.6% | viability, T/C [36] 92.8%
> 10000 nM: IC50 (second compound 0.0316 µM) | IC50 (second compound 0.1 µM) | IC50 (second compound 0.316 µM) | IC50 (second compound 1 µM) | IC50 (second compound 3.16 µM) | IC50 (second compound 10 µM)

CCc1c2c(nc3ccc(O)cc13)-c1cc3c(c(=O)n1C2)COC(=O)[C@]3(O)CC + COC1C(OC(N)=O)C(O)C(Oc2ccc3c(O)c(NC(=O)c4ccc(O)c(CC=C(C)C)c4)c(=O)oc3c2C)OC1(C)C
21.1 nM: IC50 (second compound 3.16 µM)
25.9 nM: IC50 (second compound 0.0316 µM)
24 nM: IC50 (second compound 0.316 µM)
active: viability, T/C [4] 7.12% | viability, T/C [9] 8.86% | viability, T/C [10] 6.83% | viability, T/C [27] 10.9% | viability, T/C [28] 6.97% | viability, T/C [34] 9.35%
inactive: viability, T/C (second compound 0.0316 µM, first compound 0.00316 µM) 96.6% | viability, T/C (second compound 0.0316 µM, first compound 0.01 µM) 83.1% | viability, T/C [1] 41% | viability, T/C [2] 20.6% | viability, T/C [3] 10.8% | viability, T/C (second compound 0.1 µM, first compound 0.00316 µM) 95.7% | viability, T/C (second compound 0.1 µM, first compound 0.01 µM) 88% | viability, T/C [7] 42.5% | viability, T/C [8] 16.8% | viability, T/C (second compound 0.316 µM, first compound 0.00316 µM) 87.1% | viability, T/C (second compound 0.316 µM, first compound 0.01 µM) 88.6% | viability, T/C [13] 38% | viability, T/C [14] 14.2% | viability, T/C [15] 9.57% | viability, T/C [16] 7.85% | viability, T/C (second compound 1 µM, first compound 0.00316 µM) 93.5% | viability, T/C (second compound 1 µM, first compound 0.01 µM) 91.2% | viability, T/C [19] 42.9% | viability, T/C [20] 16.6% | viability, T/C [21] 11% | viability, T/C [22] 7.07% | viability, T/C (second compound 3.16 µM, first compound 0.00316 µM) 94.3% | viability, T/C (second compound 3.16 µM, first compound 0.01 µM) 79% | viability, T/C [25] 34% | viability, T/C [26] 13.3% | viability, T/C (second compound 10 µM, first compound 0.00316 µM) 95.5% | viability, T/C (second compound 10 µM, first compound 0.01 µM) 56.7% | viability, T/C [31] 28.6% | viability, T/C [32] 14.9% | viability, T/C [33] 9.1%
27 nM: IC50 (second compound 1 µM)
26.8 nM: IC50 (second compound 0.1 µM)
13.2 nM: IC50 (second compound 10 µM)

CC1COCCN1c1cc(C2(O)CC3CCC(C2)O3)c2cnn(-c3ccn[nH]3)c2n1 (stereo unspecified) + Nc1ccc(C#CCN(C(=O)Cc2ncc(C(F)(F)F)cc2C(F)(F)F)c2ccc(F)cc2)nn1
active: viability, T/C [12] 8.08% | viability, T/C [18] 7.87% | viability, T/C [24] 8.87% | viability, T/C [36] 7.06%
328 nM: IC50 (second compound 0.0316 µM)
289 nM: IC50 (second compound 3.16 µM)
350 nM: IC50 (second compound 0.1 µM)
288 nM: IC50 (second compound 1 µM)
249 nM: IC50 (second compound 0.316 µM)
inactive: viability, T/C [1] 88.7% | viability, T/C [2] 76.8% | viability, T/C [3] 49.4% | viability, T/C [4] 27% | viability, T/C [5] 18.9% | viability, T/C [6] 8.36% | viability, T/C [7] 109% | viability, T/C [8] 77.2% | viability, T/C [9] 54.2% | viability, T/C [10] 29.2% | viability, T/C [11] 18% | viability, T/C [13] 105% | viability, T/C [14] 72.1% | viability, T/C [15] 44.2% | viability, T/C [16] 24.3% | viability, T/C [17] 17% | viability, T/C [19] 95.8% | viability, T/C [20] 70.5% | viability, T/C [21] 52% | viability, T/C [22] 24.3% | viability, T/C [23] 15.6% | viability, T/C [25] 89.9% | viability, T/C [26] 80.7% | viability, T/C [27] 43.9% | viability, T/C [28] 26% | viability, T/C [29] 18.2% | viability, T/C [30] 7.84% | viability, T/C [31] 87.7% | viability, T/C [32] 66% | viability, T/C [33] 41.4% | viability, T/C [34] 21.1% | viability, T/C [35] 18.1%
209 nM: IC50 (second compound 10 µM)
